Measurements from US20230257396A1, “MACROCYCLES AND THEIR USE” (BLOSSOMHILL THERAPEUTICS, INC., priority 2020, published 2023).

What was measured:
Assay in all cases: KINOMEscan kinase binding assay (Eurofins/DiscoveRx), % Ctrl
Settings in all cases: 1 μM
kinases [1] = biological target: T1, kinases (Homo sapiens, UniProt P00519)
T1 construct: purchased Eurofins/DiscoveRx; host or cells: E. coli BL21-derived host (T7 phage display) for most kinases; HEK-293 for the rest
How it was run: (§1)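 Read-out is qPCR of kinase eluted from ligand-coated streptavidin beads after 1 h room-temperature competition with test compound. Values are % Ctrl at the tested concentration, lower meaning tighter binding.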

kinases [2] = biological target: T2, kinases (Homo sapiens, UniProt P00519, E255K)
T2 construct: purchased Eurofins/DiscoveRx; host or cells: E. coli BL21-derived host (T7 phage display) for most kinases; HEK-293 for the rest
How it was run: as §1

kinases [3] = biological target: T3, kinases (Homo sapiens, UniProt P00519, Q252H)
T3 construct: purchased Eurofins/DiscoveRx; host or cells: E. coli BL21-derived host (T7 phage display) for most kinases; HEK-293 for the rest
How it was run: as §1

kinases [4] = biological target: T4, kinases (Homo sapiens, UniProt P00519, T315I)
T4 construct: purchased Eurofins/DiscoveRx; host or cells: E. coli BL21-derived host (T7 phage display) for most kinases; HEK-293 for the rest
How it was run: as §1

kinases [5] = biological target: T5, kinases (Homo sapiens, UniProt P00519, Y253F)
T5 construct: purchased Eurofins/DiscoveRx; host or cells: E. coli BL21-derived host (T7 phage display) for most kinases; HEK-293 for the rest
How it was run: as §1

kinases [6] = biological target: T6, kinases (Homo sapiens, UniProt P00533, L858R)
T6 construct: purchased Eurofins/DiscoveRx; host or cells: E. coli BL21-derived host (T7 phage display) for most kinases; HEK-293 for the rest
How it was run: as §1

kinases [7] = biological target: T7, kinases (Homo sapiens, UniProt P00533, L858R/T790M)
T7 construct: purchased Eurofins/DiscoveRx; host or cells: E. coli BL21-derived host (T7 phage display) for most kinases; HEK-293 for the rest
How it was run: as §1

kinases [8] = biological target: T8, kinases (Homo sapiens, UniProt P07949, V804M)
T8 construct: purchased Eurofins/DiscoveRx; host or cells: E. coli BL21-derived host (T7 phage display) for most kinases; HEK-293 for the rest
How it was run: as §1

kinases [9] = biological target: T9, kinases (Homo sapiens, UniProt P10721, D816V)
T9 construct: purchased Eurofins/DiscoveRx; host or cells: E. coli BL21-derived host (T7 phage display) for most kinases; HEK-293 for the rest
How it was run: as §1

kinases [10] = biological target: T10, kinases (Homo sapiens, UniProt P10721, T670I/V559D)
T10 construct: purchased Eurofins/DiscoveRx; host or cells: E. coli BL21-derived host (T7 phage display) for most kinases; HEK-293 for the rest
How it was run: as §1

kinases [11] = biological target: T11, kinases (Homo sapiens, UniProt P10721, V559D)
T11 construct: purchased Eurofins/DiscoveRx; host or cells: E. coli BL21-derived host (T7 phage display) for most kinases; HEK-293 for the rest
How it was run: as §1

kinases [12] = biological target: T12, kinases (Homo sapiens, UniProt P17948)
T12 construct: purchased Eurofins/DiscoveRx; host or cells: E. coli BL21-derived host (T7 phage display) for most kinases; HEK-293 for the rest
How it was run: as §1

kinases [13] = biological target: T13, kinases (Homo sapiens, UniProt P35916)
T13 construct: purchased Eurofins/DiscoveRx; host or cells: E. coli BL21-derived host (T7 phage display) for most kinases; HEK-293 for the rest
How it was run: as §1

kinases [14] = biological target: T14, kinases (Homo sapiens, UniProt P36888, D835Y)
T14 construct: purchased Eurofins/DiscoveRx; host or cells: E. coli BL21-derived host (T7 phage display) for most kinases; HEK-293 for the rest
T14 sequence (P36888 27-993 D835Y): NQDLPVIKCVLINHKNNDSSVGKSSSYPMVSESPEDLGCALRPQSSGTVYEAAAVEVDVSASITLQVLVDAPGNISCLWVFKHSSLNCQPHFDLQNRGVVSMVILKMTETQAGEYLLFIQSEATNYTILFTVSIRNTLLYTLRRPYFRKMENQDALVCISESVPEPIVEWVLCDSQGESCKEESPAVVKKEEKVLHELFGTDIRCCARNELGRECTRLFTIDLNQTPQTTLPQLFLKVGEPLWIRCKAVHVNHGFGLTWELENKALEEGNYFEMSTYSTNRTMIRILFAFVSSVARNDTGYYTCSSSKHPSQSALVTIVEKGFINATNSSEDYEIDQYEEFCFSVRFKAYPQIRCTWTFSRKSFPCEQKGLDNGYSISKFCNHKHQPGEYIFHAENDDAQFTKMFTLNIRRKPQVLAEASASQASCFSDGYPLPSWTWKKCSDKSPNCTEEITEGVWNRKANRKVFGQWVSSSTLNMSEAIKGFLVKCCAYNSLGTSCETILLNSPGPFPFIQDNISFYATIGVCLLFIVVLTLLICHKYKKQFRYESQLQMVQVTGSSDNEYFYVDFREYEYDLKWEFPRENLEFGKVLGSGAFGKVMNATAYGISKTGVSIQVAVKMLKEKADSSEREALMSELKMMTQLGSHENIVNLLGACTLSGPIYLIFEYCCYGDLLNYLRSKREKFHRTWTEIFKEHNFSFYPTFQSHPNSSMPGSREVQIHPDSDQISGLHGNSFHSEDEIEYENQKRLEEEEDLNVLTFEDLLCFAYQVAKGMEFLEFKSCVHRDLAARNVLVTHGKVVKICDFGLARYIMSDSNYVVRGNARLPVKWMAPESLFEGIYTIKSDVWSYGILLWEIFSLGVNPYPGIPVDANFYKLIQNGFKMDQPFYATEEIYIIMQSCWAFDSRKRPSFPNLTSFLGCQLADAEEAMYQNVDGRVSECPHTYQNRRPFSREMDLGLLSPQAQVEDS
How it was run: as §1

kinases [15] = biological target: T15, kinases (Homo sapiens, UniProt P42684)
T15 construct: purchased Eurofins/DiscoveRx; host or cells: E. coli BL21-derived host (T7 phage display) for most kinases; HEK-293 for the rest
How it was run: as §1

T15 sequence (P42684 whole entry): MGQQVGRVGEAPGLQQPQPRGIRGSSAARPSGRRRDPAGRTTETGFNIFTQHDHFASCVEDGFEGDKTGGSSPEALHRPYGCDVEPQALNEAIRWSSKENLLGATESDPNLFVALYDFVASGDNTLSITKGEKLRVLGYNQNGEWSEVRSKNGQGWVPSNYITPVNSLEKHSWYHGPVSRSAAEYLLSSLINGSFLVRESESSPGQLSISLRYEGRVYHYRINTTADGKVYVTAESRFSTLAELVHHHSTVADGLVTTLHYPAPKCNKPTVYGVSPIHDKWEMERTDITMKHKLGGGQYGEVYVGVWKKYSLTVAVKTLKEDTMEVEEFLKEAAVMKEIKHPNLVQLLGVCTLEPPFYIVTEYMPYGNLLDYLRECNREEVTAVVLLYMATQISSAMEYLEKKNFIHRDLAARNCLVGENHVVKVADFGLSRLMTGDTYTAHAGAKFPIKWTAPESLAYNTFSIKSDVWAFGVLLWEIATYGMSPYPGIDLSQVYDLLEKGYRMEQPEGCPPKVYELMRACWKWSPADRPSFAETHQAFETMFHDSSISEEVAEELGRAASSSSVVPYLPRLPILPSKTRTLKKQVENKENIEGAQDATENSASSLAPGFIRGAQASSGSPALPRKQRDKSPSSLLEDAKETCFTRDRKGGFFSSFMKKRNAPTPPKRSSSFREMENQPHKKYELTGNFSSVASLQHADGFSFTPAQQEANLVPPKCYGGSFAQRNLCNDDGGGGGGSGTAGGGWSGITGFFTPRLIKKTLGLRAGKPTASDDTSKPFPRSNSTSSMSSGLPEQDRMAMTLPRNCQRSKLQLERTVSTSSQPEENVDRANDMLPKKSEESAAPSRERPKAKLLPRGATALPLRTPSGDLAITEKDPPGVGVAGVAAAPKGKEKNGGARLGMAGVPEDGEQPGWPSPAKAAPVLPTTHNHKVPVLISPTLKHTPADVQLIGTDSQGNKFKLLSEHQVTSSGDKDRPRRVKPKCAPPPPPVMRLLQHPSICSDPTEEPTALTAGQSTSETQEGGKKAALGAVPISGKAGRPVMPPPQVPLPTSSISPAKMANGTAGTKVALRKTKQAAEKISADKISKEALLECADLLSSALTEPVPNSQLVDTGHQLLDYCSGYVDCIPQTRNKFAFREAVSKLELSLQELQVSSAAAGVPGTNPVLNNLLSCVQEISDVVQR
T13 sequence (P35916 25-1363): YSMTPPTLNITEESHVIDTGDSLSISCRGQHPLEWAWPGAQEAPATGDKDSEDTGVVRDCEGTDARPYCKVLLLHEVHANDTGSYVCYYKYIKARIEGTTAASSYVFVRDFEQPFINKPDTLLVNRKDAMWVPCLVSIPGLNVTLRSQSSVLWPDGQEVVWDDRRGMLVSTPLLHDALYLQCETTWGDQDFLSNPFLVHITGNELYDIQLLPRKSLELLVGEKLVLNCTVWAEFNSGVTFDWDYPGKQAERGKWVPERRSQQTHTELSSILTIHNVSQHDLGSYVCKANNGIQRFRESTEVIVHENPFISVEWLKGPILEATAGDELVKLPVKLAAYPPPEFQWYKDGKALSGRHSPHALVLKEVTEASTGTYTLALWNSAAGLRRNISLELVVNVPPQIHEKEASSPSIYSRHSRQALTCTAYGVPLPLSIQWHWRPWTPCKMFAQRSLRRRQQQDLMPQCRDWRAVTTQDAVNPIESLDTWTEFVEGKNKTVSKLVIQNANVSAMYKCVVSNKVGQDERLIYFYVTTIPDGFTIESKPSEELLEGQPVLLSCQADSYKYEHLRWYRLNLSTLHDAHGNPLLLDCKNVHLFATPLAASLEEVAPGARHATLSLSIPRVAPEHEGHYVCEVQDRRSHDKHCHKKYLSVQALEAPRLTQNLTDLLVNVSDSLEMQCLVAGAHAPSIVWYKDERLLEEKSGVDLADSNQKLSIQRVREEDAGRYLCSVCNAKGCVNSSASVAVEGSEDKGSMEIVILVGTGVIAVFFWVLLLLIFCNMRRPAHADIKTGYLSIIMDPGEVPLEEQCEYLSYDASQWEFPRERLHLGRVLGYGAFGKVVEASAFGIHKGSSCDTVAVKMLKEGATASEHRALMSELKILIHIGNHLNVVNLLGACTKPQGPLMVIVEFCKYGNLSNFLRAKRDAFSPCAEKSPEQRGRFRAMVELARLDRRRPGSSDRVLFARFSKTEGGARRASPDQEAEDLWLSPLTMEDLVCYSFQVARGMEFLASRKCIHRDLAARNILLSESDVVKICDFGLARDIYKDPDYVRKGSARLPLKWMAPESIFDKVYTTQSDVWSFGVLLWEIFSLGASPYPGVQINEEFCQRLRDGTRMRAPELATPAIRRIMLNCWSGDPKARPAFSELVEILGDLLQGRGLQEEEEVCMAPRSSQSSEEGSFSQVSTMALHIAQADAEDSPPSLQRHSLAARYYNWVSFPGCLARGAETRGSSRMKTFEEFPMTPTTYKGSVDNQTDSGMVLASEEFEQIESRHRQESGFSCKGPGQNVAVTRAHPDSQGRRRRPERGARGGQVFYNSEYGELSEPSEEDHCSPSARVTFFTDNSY
T11 sequence (P10721 26-976 V559D): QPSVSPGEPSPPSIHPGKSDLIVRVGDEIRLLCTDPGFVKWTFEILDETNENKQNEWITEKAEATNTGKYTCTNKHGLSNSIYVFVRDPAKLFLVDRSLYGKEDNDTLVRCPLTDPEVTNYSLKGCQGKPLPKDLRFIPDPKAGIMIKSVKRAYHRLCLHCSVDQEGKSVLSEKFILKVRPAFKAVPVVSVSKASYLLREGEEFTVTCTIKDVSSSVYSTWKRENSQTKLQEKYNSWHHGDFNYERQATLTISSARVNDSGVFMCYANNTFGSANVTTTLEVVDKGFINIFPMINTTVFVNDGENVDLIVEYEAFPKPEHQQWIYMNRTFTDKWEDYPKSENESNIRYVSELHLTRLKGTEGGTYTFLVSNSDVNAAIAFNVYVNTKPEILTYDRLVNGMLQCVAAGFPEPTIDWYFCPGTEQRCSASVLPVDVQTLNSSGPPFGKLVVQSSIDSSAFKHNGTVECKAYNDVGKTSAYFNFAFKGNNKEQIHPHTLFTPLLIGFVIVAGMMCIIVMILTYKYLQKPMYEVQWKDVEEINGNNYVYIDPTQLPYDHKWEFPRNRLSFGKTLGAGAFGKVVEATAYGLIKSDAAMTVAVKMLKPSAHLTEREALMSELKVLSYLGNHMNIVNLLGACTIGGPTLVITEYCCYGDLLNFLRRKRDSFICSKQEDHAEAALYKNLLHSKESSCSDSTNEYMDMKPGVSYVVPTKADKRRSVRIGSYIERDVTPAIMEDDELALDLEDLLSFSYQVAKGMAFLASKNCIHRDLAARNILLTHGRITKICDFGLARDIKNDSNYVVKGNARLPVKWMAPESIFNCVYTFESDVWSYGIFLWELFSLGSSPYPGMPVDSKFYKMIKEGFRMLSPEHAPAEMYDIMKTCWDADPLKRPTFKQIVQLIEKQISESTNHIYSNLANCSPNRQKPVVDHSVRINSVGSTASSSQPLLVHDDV
T12 sequence (P17948 27-1338): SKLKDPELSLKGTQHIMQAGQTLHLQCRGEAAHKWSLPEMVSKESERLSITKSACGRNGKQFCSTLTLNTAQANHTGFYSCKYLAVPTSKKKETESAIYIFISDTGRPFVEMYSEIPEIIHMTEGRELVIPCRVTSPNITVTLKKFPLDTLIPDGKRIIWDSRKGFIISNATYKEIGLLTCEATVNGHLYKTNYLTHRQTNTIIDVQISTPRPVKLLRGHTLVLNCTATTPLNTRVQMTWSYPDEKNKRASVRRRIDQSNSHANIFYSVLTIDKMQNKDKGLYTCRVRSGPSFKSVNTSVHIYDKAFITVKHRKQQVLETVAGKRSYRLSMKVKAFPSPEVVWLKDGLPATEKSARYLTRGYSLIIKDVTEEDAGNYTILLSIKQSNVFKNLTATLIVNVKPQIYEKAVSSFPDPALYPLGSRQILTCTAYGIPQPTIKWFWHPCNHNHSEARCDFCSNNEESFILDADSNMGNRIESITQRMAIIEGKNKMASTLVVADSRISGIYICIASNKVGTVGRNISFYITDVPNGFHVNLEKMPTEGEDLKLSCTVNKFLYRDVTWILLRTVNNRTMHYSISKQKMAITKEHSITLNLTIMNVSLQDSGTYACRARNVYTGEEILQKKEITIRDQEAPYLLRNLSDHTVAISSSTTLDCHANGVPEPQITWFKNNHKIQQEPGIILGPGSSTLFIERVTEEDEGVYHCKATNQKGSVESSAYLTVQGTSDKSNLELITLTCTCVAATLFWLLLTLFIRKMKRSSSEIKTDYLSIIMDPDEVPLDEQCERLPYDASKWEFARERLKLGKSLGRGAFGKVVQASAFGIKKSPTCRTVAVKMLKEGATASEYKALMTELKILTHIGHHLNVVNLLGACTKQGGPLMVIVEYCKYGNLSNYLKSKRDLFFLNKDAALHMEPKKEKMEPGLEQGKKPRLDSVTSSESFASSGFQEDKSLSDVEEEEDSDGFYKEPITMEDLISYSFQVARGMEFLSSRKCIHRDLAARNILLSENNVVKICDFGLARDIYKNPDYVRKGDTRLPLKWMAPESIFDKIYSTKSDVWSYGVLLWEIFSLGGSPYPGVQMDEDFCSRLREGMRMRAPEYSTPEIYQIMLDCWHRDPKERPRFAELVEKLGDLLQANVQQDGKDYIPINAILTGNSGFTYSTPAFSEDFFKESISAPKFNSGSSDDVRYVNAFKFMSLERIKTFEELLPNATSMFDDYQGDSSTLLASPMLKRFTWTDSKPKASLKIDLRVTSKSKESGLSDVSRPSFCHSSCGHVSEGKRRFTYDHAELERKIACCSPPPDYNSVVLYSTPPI
T10 sequence (P10721 26-976 V559D/T670I): as the sequence (P10721 26-976 V559D) above, with T645I counted along it
T9 sequence (P10721 26-976 D816V): as the sequence (P10721 26-976 V559D) above, with D534V, D791V counted along it

Structure (SMILES)	% Ctrl, ABL1-nonphosphorylated (kinases [1]; ABL1-nonphosphorylated) [% Ctrl]	% Ctrl, ABL1-phosphorylated (kinases [1]; ABL1-phosphorylated) [% Ctrl]	% Ctrl, ABL1(E255K)-phosphorylated (kinases [2]; ABL1(E255K)-phosphorylated) [% Ctrl]	% Ctrl, ABL1(Q252H)-nonphosphorylated (kinases [3]; ABL1(Q252H)-nonphosphorylated) [% Ctrl]	% Ctrl, ABL1(Q252H)-phosphorylated (kinases [3]; ABL1(Q252H)-phosphorylated) [% Ctrl]	% Ctrl, ABL1(T315I)-nonphosphorylated (kinases [4]; ABL1(T315I)-nonphosphorylated) [% Ctrl]	% Ctrl, ABL1(T315I)-phosphorylated (kinases [4]; ABL1(T315I)-phosphorylated) [% Ctrl]	% Ctrl, ABL1(Y253F)-phosphorylated (kinases [5]; ABL1(Y253F)-phosphorylated) [% Ctrl]	% Ctrl, EGFR(L858R) (kinases [6]; EGFR(L858R)) [% Ctrl]	% Ctrl, EGFR(L858R, T790M) (kinases [7]; EGFR(L858R, T790M)) [% Ctrl]	% Ctrl, RET(V804M) (kinases [8]; RET(V804M)) [% Ctrl]	% Ctrl, KIT(D816V) (kinases [9]; KIT(D816V)) [% Ctrl]	% Ctrl, KIT(V559D, T670I) (kinases [10]; KIT(V559D, T670I)) [% Ctrl]	% Ctrl, KIT(V559D) (kinases [11]; KIT(V559D)) [% Ctrl]	% Ctrl, FLT1 (kinases [12]; FLT1) [% Ctrl]	% Ctrl, FLT4 (kinases [13]; FLT4) [% Ctrl]	% Ctrl, FLT3(D835Y) (kinases [14]; FLT3(D835Y)) [% Ctrl]	% Ctrl, ABL2 (kinases [15]; ABL2) [% Ctrl]	further results
Cc1cc2c([nH]1)/C=C1\C(=O)Nc3ccc(cc31)-c1ccnn1CCOCCN(C)C2=O [Ex. 41, [19a(20)Z]-2,5-dimethyl-6,7,9,10-tetrahydro-1H-15,17-(ethanediylidene)pyrazolo[1,5-d]dipyrrolo[3,4-h:2′,3′-k][1,4,14]oxadiazacyclohexadecine-4,19(5H,18H)-dione]	7.1	56	49	9	63	16	19	49	93	17	19	38	30	64	81	62	8.8	77	–
Cc1cc2c([nH]1)/C=C1\C(=O)Nc3ccc(cc31)-c1ccnn1CCNCCNC2=O [Ex. 43, [19a(20)Z]-2-methyl-5,6,7,8,9,10-hexahydro-15,17-(ethanediylidene)pyrazolo[1,5-g]dipyrrolo[3,4-k:2′,3′-n][1,4,7]triazacyclohexadecine-4,19(1H,18H)-dione]	53	90	84	55	97	68	75	80	97	98	97	96	92	100	96	91	86	100	–
Cc1cc2c([nH]1)/C=C1\C(=O)Nc3cnc(cc31)-c1cn[nH]c1CNCCN(C)C2=O [Ex. 55, [3a(4)Z]-6,9-dimethyl-9,10,11,12,13,14-hexahydro-17,1-(azenometheno)pyrazolo[4,3-m]dipyrrolo[3,2-f:3′,4′-i][1,4]diazacyclopentadecine-3,8(2,5H)-dione]	–	–	–	–	–	–	–	–	–	–	–	–	–	–	–	–	–	–	% Ctrl, ABL1-nonphosphorylated (kinases [1]; target ABL1-nonphosphorylated): 10 % Ctrl; % Ctrl, ABL1-phosphorylated (kinases [1]; target ABL1-phosphorylated): 6 % Ctrl; % Ctrl, ABL1(E255K)-phosphorylated (kinases [2]; target ABL1(E255K)-phosphorylated): 2.6 % Ctrl; % Ctrl, ABL1(Q252H)-nonphosphorylated (kinases [3]; target ABL1(Q252H)-nonphosphorylated): 2.8 % Ctrl; % Ctrl, ABL1(Q252H)-phosphorylated (kinases [3]; target ABL1(Q252H)-phosphorylated): 1.7 % Ctrl; % Ctrl, ABL1(T315I)-nonphosphorylated (kinases [4]; target ABL1(T315I)-nonphosphorylated): 1.6 % Ctrl; % Ctrl, ABL1(T315I)-phosphorylated (kinases [4]; target ABL1(T315I)-phosphorylated): 2.6 % Ctrl; % Ctrl, ABL1(Y253F)-phosphorylated (kinases [5]; target ABL1(Y253F)-phosphorylated): 3.1 % Ctrl; % Ctrl, EGFR(L858R) (kinases [6]; target EGFR(L858R)): 88 % Ctrl; % Ctrl, EGFR(L858R, T790M) (kinases [7]; target EGFR(L858R, T790M)): 35 % Ctrl; % Ctrl, RET(V804M) (kinases [8]; target RET(V804M)): 0.3 % Ctrl; % Ctrl, KIT(D816V) (kinases [9]; target KIT(D816V)): 1.3 % Ctrl; % Ctrl, KIT(V559D, T670I) (kinases [10]; target KIT(V559D, T670I)): 50 % Ctrl; % Ctrl, KIT(V559D) (kinases [11]; target KIT(V559D)): 55 % Ctrl; % Ctrl, FLT1 (kinases [12]; target FLT1): 62 % Ctrl; % Ctrl, FLT4 (kinases [13]; target FLT4): 31 % Ctrl; % Ctrl, FLT3(D835Y) (kinases [14]; target FLT3(D835Y)): 2 % Ctrl; % Ctrl, ABL2 (kinases [15]; target ABL2): 58 % Ctrl

The next lines start with results.

% Ctrl, ABL1-nonphosphorylated (kinases [1]; ABL1-nonphosphorylated) [% Ctrl]	% Ctrl, ABL1-phosphorylated (kinases [1]; ABL1-phosphorylated) [% Ctrl]	% Ctrl, ABL1(E255K)-phosphorylated (kinases [2]; ABL1(E255K)-phosphorylated) [% Ctrl]	% Ctrl, ABL1(Q252H)-nonphosphorylated (kinases [3]; ABL1(Q252H)-nonphosphorylated) [% Ctrl]	% Ctrl, ABL1(Q252H)-phosphorylated (kinases [3]; ABL1(Q252H)-phosphorylated) [% Ctrl]	% Ctrl, ABL1(T315I)-nonphosphorylated (kinases [4]; ABL1(T315I)-nonphosphorylated) [% Ctrl]	% Ctrl, ABL1(T315I)-phosphorylated (kinases [4]; ABL1(T315I)-phosphorylated) [% Ctrl]	% Ctrl, ABL1(Y253F)-phosphorylated (kinases [5]; ABL1(Y253F)-phosphorylated) [% Ctrl]	% Ctrl, EGFR(L858R) (kinases [6]; EGFR(L858R)) [% Ctrl]	% Ctrl, EGFR(L858R, T790M) (kinases [7]; EGFR(L858R, T790M)) [% Ctrl]	% Ctrl, RET(V804M) (kinases [8]; RET(V804M)) [% Ctrl]	% Ctrl, KIT(D816V) (kinases [9]; KIT(D816V)) [% Ctrl]	% Ctrl, KIT(V559D, T670I) (kinases [10]; KIT(V559D, T670I)) [% Ctrl]	% Ctrl, KIT(V559D) (kinases [11]; KIT(V559D)) [% Ctrl]	% Ctrl, FLT1 (kinases [12]; FLT1) [% Ctrl]	% Ctrl, FLT4 (kinases [13]; FLT4) [% Ctrl]	% Ctrl, FLT3(D835Y) (kinases [14]; FLT3(D835Y)) [% Ctrl]	% Ctrl, ABL2 (kinases [15]; ABL2) [% Ctrl]	Structure (SMILES)	further results
0	25	22	0	34	12	66	54	98	100	43	59	91	91	90	75	28	43	Cc1cc2c([nH]1)/C=C1\C(=O)Nc3ccc(cc31)O[C@@H](C)COCCN(C)C2=O [Ex. 92, [10S,16a(17)Z]-2,5,10-trimethyl-6,7,9,10-tetrahydro-1H-12,14-(ethanediylidene)dipyrrolo[3,2-i:3′,4′-l][1,4,7]dioxazacyclopentadecine-4,16(5H,15H)-dione]	–
0	0	0	0	0	0	0.1	0	58	1.7	0.05	0.7	24	36	13	0.15	5.6	2.4	Cc1cc2c([nH]1)/C=C1\C(=O)Nc3ccc(cc31)-c1cnn(C)c1COCCN(C)C2=O [Ex. 124, [3a(4)Z]-6,9,14-trimethyl-10,11,13,14-tetrahydro-2H-1,17-(ethanediylidene)pyrazolo[4,3-m]dipyrrolo[3,2-f:3′,4′-i][1,4]oxazacyclopentadecine-3,8(5H,9H)-dione]	–
